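Values below derive from 48-hour exposures of cells grown in 96-well plates, with endpoints linearly interpolated between the two concentrations bracketing the appropriate inhibition level. TGI: total growth inhibition.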
Legend:
Assay in all cases: inhibition of tumour cell growth, NCI panel, 48 h
[1] = tested on: 786-0 renal
[2] = tested on: A498 renal
[3] = tested on: A549 NSCLC
[4] = tested on: ACHN renal
[5] = tested on: BT-549 breast
[6] = tested on: CAKI-1 renal
[7] = tested on: CCRF-CEM leukemia
[8] = tested on: COLO 205 colon
[9] = tested on: DLD-1 colon
[10] = tested on: DMS 114 small cell lung
[11] = tested on: DMS 273 small cell lung
[12] = tested on: DU-145 prostate
[13] = tested on: EKVX NSCLC
[14] = tested on: HCC-2998 colon
[15] = tested on: HCT-116 colon
[16] = tested on: HCT-15 colon
[17] = tested on: HL-60(TB) leukemia
[18] = tested on: HOP-18 NSCLC
[19] = tested on: HOP-62 NSCLC
[20] = tested on: HOP-92 NSCLC
[21] = tested on: HS 578T breast
[22] = tested on: HT29 colon
[23] = tested on: IGROV1 ovarian
[24] = tested on: K-562 leukemia
[25] = tested on: KM12 colon
[26] = tested on: KM20L2 colon
[27] = tested on: LOX IMVI melanoma
[28] = tested on: LXFL 529 NSCLC
[29] = tested on: M14 melanoma
[30] = tested on: M19-MEL melanoma
[31] = tested on: MALME-3M melanoma
[32] = tested on: MCF7 breast
[33] = tested on: MDA-MB-231 breast
[34] = tested on: MDA-MB-435
[35] = tested on: MDA-N
[36] = tested on: MOLT-4 leukemia
[37] = tested on: NCI-H226 lung
[38] = tested on: NCI-H23 lung
[39] = tested on: NCI-H460 lung
[40] = tested on: NCI-H522 lung
[41] = tested on: NCI/ADR-RES ovarian
[42] = tested on: OVCAR-3 ovarian
[43] = tested on: OVCAR-4 ovarian
[44] = tested on: OVCAR-5 ovarian
[45] = tested on: OVCAR-8 ovarian
[46] = tested on: PC-3 prostate
[47] = tested on: RXF 393 renal
[48] = tested on: RXF-631 renal
[49] = tested on: SF-268 CNS
[50] = tested on: SF-295 CNS
[51] = tested on: SF-539 CNS
[52] = tested on: SK-MEL-2 melanoma
[53] = tested on: SK-MEL-28 melanoma
[54] = tested on: SK-MEL-5 melanoma
[55] = tested on: SK-OV-3 ovarian
[56] = tested on: SN12C renal
[57] = tested on: SNB-19 CNS
[58] = tested on: SNB-75 CNS
[59] = tested on: SNB-78 CNS
[60] = tested on: SR leukemia
[61] = tested on: SW-620 colon
[62] = tested on: T-47D breast
[63] = tested on: TK-10 renal
[64] = tested on: U251 CNS
[65] = tested on: UACC-257 melanoma
[66] = tested on: UACC-62 melanoma
[67] = tested on: UO-31 renal
[68] = tested on: XF 498 CNS

COc1cccc(/C=C2\CCC(CN(C)C)C2=O)c1 (stereo not drawn)
TGI [1]: 8.57 µM
TGI [2]: 31.5 µM
TGI [3]: 42.7 µM
TGI [4]: 25.5 µM
TGI [5]: 15.2 µM
TGI [6]: 15.7 µM
TGI [7]: 11.1 µM
TGI [8]: 24.5 µM
TGI [9]: 7.81 µM
TGI [10]: 42.4 µM
TGI [11]: 26.2 µM
TGI [12]: 9.29 µM
TGI [13]: 42.1 µM
TGI [14]: 24.4 µM
TGI [15]: 16 µM
TGI [16]: 7.97 µM
TGI [17]: 2.47 µM
TGI [18]: 33.2 µM
TGI [19]: 21 µM
TGI [20]: 33.9 µM
TGI [21]: > 89.4 µM
TGI [22]: 40.7 µM
TGI [23]: 23.4 µM
TGI [24]: 4.89 µM
TGI [25]: 15.1 µM
TGI [26]: 31.7 µM
TGI [27]: 3.51 µM
TGI [28]: 6.45 µM
TGI [29]: 9.62 µM
TGI [30]: 21.5 µM
TGI [31]: 14 µM
TGI [32]: 13.2 µM
TGI [33]: 14 µM
TGI [34]: 7.02 µM
TGI [35]: 16.8 µM
TGI [36]: 5.19 µM
TGI [37]: 33.6 µM
TGI [38]: 27.3 µM
TGI [39]: 35 µM
TGI [40]: 6.15 µM
TGI [41]: 6.56 µM
TGI [42]: 11.9 µM
TGI [43]: 22.2 µM
TGI [44]: 29.6 µM
TGI [45]: 9.55 µM
TGI [46]: 27.2 µM
TGI [47]: 12.3 µM
TGI [48]: 20.2 µM
TGI [49]: 33.5 µM
TGI [50]: 30.8 µM
TGI [51]: 27.9 µM
TGI [52]: 26.2 µM
TGI [53]: 8.52 µM
TGI [54]: 24.8 µM
TGI [55]: 29.2 µM
TGI [56]: 22.8 µM
TGI [57]: 29.5 µM
TGI [58]: 38.2 µM
TGI [59]: 66.5 µM
TGI [60]: 8.43 µM
TGI [61]: 8.52 µM
TGI [62]: 16.6 µM
TGI [63]: 24.3 µM
TGI [64]: 26.5 µM
TGI [65]: 12.7 µM
TGI [66]: 20.9 µM
TGI [67]: 20.1 µM
TGI [68]: 33.6 µM

Source: PubChem BioAssay (NCI)
